From article PMC6089342 (ACS chemical biology, 2017)

Legend:
[1] = biological target: T1, YFP-PARP14 MD2 (Homo sapiens, UniProt Q460N5); experiment: Laser micro-irradiation assay, recruitment of YFP-PARP14 MD2 to DNA damage sites; format: cell-based; conditions: U-2 OS cells
T1 sequence (Q460N5 1003-1190 limits assumed): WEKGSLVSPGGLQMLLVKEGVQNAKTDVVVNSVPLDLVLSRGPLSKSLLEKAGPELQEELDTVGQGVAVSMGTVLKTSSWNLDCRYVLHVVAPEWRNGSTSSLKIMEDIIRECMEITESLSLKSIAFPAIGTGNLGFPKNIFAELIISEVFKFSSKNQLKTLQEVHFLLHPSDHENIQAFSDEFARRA

[2] = biological target: T2, PARP14 MD2 (Homo sapiens, UniProt Q460N5); experiment: Isothermal titration calorimetry; format: binding; conditions: negative control, Figure 1D
T2 sequence (Q460N5 994-1191): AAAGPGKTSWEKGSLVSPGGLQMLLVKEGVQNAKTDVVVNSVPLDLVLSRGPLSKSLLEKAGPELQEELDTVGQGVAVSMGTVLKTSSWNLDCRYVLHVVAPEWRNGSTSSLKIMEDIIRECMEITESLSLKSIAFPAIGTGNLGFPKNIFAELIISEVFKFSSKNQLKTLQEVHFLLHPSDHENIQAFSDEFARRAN

O=C(c1cc(Cc2n[nH]c(=O)c3ccccc23)ccc1F)N1CCN(C(=O)C2CC2)CC1 [Olaparib, reference compound]
PARP14 MD2 recruitment to laser-induced DNA damage sites ([1]; 10 µM, pre-treated 1 hour): recruitment of the macrodomain could not be detected

CC(=O)Nc1ccncc1-c1cccc2c1[nH]c1ccccc12 [MnK2-68]
PARP14 MD2 recruitment to laser-induced DNA damage sites ([1]; negative control, concentration not given): did not interfere with PARP14 MD2 recruitment | binding to PARP14 MD2 [2]: did not bind
